pIC50: −log10 of the molar value. Read-outs that look alike come from different tables or passages of the source.
Key:
p38 MAPKα = p38 MAPKα (Homo sapiens (Human), UniProt Q16539); assay: p38 MAPKα enzyme inhibition (Method 2), Z-LYTE FRET; format: biochemical
Method: (§1) The enzyme inhibitory activities of compounds disclosed herein are determined by FRET using synthetic peptides labelled with both donor and acceptor fluorophores (Z-LYTE, Invitrogen Ltd., Paisley, UK).
The inhibitory activities of test compounds against the p38 MAPKα isoform (MAPK14: Invitrogen), are evaluated indirectly by determining the level of activation/phosphorylation of the down-stream molecule, MAPKAP-K2. The p38 MAPKα protein (80 ng/mL, 2.5 μL) is mixed with the test compound (2.5 μL of either 4 μg/mL, 0.4 μg/mL, 0.04 μg/mL or 0.004 μg/mL) for 2 hr at RT. […] The mixture is incubated for 1 hr at RT. Development reagent (protease, […]) is added for 1 hr prior to detection in a fluorescence microplate reader (Varioskan® Flash, ThermoFisher Scientific).
This method follows the same steps as Method 1 above, but utilises a higher concentration of the p38 MAPKα protein (2.5 μL of 200 ng/mL protein instead of 2.5 μL of 80 ng/mL protein) for mixing with the test compound.
(§2) In all cases, the site-specific protease cleaves non-phosphorylated peptide only and eliminates the FRET signal. Phosphorylation levels of each reaction are calculated using the ratio of coumarin emission (donor) over fluorescein emission (acceptor), for which high ratios indicate high phosphorylation and low ratios indicate low phosphorylation levels. The percentage inhibition of each reaction is calculated relative to non-inhibited control and the 50% inhibitory concentration (IC50 value) is then calculated from the concentration-response curve.

GSK3α = GSK3α (Homo sapiens (Human), UniProt P49840); assay: GSK 3α enzyme inhibition (Method 2), Z-LYTE FRET; format: biochemical
GSK3α, sequence (P49840 whole entry): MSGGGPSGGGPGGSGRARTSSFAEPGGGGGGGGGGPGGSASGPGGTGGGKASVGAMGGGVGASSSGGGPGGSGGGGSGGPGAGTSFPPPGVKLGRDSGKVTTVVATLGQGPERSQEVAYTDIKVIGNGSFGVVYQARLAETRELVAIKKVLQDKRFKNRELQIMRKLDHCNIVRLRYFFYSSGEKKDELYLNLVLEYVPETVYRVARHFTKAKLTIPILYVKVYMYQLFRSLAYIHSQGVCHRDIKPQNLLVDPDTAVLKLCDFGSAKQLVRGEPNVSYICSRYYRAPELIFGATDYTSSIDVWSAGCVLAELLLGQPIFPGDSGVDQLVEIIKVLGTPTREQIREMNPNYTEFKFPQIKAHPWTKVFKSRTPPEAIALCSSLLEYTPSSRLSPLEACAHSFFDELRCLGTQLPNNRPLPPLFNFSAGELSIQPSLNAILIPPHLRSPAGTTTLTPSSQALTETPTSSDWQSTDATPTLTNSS
Method: as §1
The inhibitory activities of compounds of the invention against the GSK 3α enzyme isoform (Invitrogen), are evaluated by determining the level of activation/phosphorylation of the target peptide. The GSK3-α protein (500 ng/mL, 2.5 μL) is mixed with the test compound (2.5 μL at either 4 μg/mL, 0.4 μg/mL, 0.04 μg/mL, or 0.004 μg/mL) for 2 hr at RT. The FRET peptide (8 μM, 2.5 μL), which is a phosphorylation target for GSK3α, and ATP (40 μM, 2.5 μL) are then added to the enzyme/compound mixture and the resulting mixture incubated for 1 hr. Development reagent (protease, 5 μL) is added for 1 hr prior to detection in a fluorescence microplate reader (Varioskan® Flash, ThermoFisher Scientific).
as §2
This method follows the same steps as Method 1 above, but utilises a shorter period of mixing of the test compound (105 minutes instead of 2 hours) with the GSK3-α protein.

d-U937 cells = assay: LPS-induced TNFα/IL-8 release in d-U937 cells; format: cell-based; details: Homo sapiens, dU937, LPS-stimulated d-U937 cells
Method: U937 cells, a human monocytic cell line, are differentiated to macrophage-type cells by incubation with phorbol myristate acetate (PMA; 100 ng/mL) for 48 to 72 hr. Cells are pre-incubated with final concentrations of test compound for 2 hr and are then stimulated with 0.1 μg/mL of LPS (from E. Coli: 0111:B4, Sigma) for 4 hr. The supernatant is collected for determination of TNFα and IL-8 concentrations by sandwich ELISA (Duo-set, R&D systems). The inhibition of TNFα production is calculated as a percentage of that achieved by 10 μg/mL of BIRB796 at each concentration of test compound by comparison against vehicle control. The relative 50% effective concentration (REC50) is determined from the resultant concentration-response curve. The inhibition of IL-8 production is calculated at each concentration of test compound by comparison with vehicle control. The 50% inhibitory concentration (IC50) is determined from the resultant concentration-response curve.

PBMCs [1] = assay: LPS-induced TNFα/IL-8 release in PBMC cells; format: cell-based; details: Homo sapiens, LPS-stimulated PBMCs, IL-8, read-out: IC50 Values for Inhibition of Cytokine Release PBMCs IL-8
Method: Peripheral blood mononuclear cells (PBMCs) from healthy subjects are separated from whole blood using a density gradient (Lymphoprep, Axis-Shield Healthcare). The PBMCs are seeded in 96 well plates and treated with compounds at the desired concentration for 2 hours before addition of 1 ng/mL LPS (Escherichia Coli 0111:B4 from Sigma Aldrich) for 24 hours under normal tissue culture conditions (37° C., 5% CO2). The supernatant is harvested for determination of IL-8 and TNFα concentrations by sandwich ELISA (Duo-set, R&D systems) and read on the fluorescence microplate reader (Varioskan® Flash, ThermoFisher Scientific). The concentration at 50% inhibition (IC50) of IL-8 and TNFα production is calculated from the dose response curve.

PBMCs [2] = assay: IL-2 and IFN gamma release in CD3/CD28 stimulated PBMC cells; format: cell-based; details: Homo sapiens
Method: PBMCs from healthy subjects are separated from whole blood using a density gradient (Lymphoprep, Axis-Shield Healthcare). Cells are added to a 96 well plate pre-coated with a mixture of CD3/CD38 monoclonal antibodies (0.3 μg/mL eBioscience and 3 μg/mL BD Pharmingen respectively). Compound at the desired concentration is then added to the wells and the plate left for 3 days under normal tissue culture conditions. Supernatants are harvested and IL-2 and IFN gamma release determined by Sandwich ELISA (Duo-set, R&D System). The IC50 is determined from the dose response curve.

HT29 cells = assay: IL-1-induced IL-8 release in HT29 cells; format: cell-based; details: Homo sapiens, HT-29, IL-1β-stimulated HT29 cells, read-out: IC50 Values for Inhibition of Cytokine Release HT29 cells IL-8
Method: HT29 cells, a human colon adenocarcinoma cell line, are plated in a 96 well plate (24 hrs) and pre-treated with compounds at the desired concentration for 2 hours before addition of 5 ng/mL of IL-1β (Abcam) for 24 hours. Supernatants are harvested for IL-8 quantification by Sandwich ELISA (Duo-set, R&D System). The IC50 is determined from the dose response curve.

[3] = test system: TNBS-induced colitis in mice; assay: TNBS-induced colitis in mice; format: in vivo; design: Ulcer grade / LP inflammation: scale not given here; details: for Ulcer grade / LP inflammation: 2 days; for Activity in in vivo model of colonic inflammation (histopathology analysis) / Inflammatory cell infiltrate in the reticular and lamina propria zones: assay (iv) conducted over 2 days; for Ulcer grade and epithelial repair compared to the vehicle control: dosed orally at 5 mg/kg (Example 2: at 1 and at 5 mg/kg)
Method: On Day 0 of the study TNBS (200 μL) is administered intra-colonically via a plastic catheter followed by BID dosing of the vehicle, reference or test compound for 2 or 4 days. During the study animals are weighed every day and stool observations are made and recorded as a score, based on stool consistency. At the time of sacrifice on Day 2 (or Day 4) the large intestine is removed and the length and weight recorded. Sections of the colon are taken for either MPO analysis to determine neutrophil infiltration or for histopathology involving scoring to determine disease severity.

[4] = IL-8, read-out: IC50 Values for Inhibition of Cytokine Release dU937 cells IL-8
[5] = IFNγ, read-out: IC50 Values for Inhibition of Cytokine Release PBMCs IFNγ
[6] = IL-2, read-out: IC50 Values for Inhibition of Cytokine Release PBMCs IL-2

p38 MAPKα, sequence (Q16539 whole entry): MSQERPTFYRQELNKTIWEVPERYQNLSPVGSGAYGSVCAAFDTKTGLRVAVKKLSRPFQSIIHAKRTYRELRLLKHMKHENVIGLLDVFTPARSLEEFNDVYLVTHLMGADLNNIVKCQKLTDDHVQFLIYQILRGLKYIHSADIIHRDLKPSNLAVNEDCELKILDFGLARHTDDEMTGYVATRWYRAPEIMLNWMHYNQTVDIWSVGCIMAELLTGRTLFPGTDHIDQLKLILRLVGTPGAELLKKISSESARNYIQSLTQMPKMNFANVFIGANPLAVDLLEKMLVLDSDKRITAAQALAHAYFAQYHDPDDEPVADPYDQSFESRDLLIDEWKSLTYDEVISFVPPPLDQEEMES

pIC50 (p38 MAPKα)	pIC50 (GSK3α)	pIC50 (d-U937 cells; [4])	pIC50 (HT29 cells)	pIC50 (d-U937 cells; TNFα (method describes REC50 relative to BIRB796), read-out: IC50 Values for Inhibition of Cytokine Release dU937 cells TNFα)	SMILES	pIC50 (PBMCs [1])	pIC50 (PBMCs [2]; [5])	pIC50 (PBMCs [2]; [6])	Ulcer grade ([3]; Experiment 2, 1 mg/kg oral BID, TNBS + Vehicle 4.4 ± 0.2)	LP inflammation ([3]; Experiment 2, 1 mg/kg oral BID, TNBS + Vehicle 4.5 ± 0.2)	Ulcer grade ([3]; Experiment 2, 5 mg/kg oral BID, TNBS + Vehicle 4.4 ± 0.2)	LP inflammation ([3]; Experiment 2, 5 mg/kg oral BID, TNBS + Vehicle 4.5 ± 0.2)	Activity in in vivo model of colonic inflammation (histopathology analysis) [3]	Inflammatory cell infiltrate in the reticular and lamina propria zones [3]	Ulcer grade and epithelial repair compared to the vehicle control [3]	LP inflammation ([3]; Experiment 1, 1 mg/kg oral BID, TNBS + Vehicle 3.9 ± 0.3)	Ulcer grade ([3]; Experiment 1, 1 mg/kg oral BID, TNBS + Vehicle 4.0 ± 0.5)	LP inflammation ([3]; Experiment 1, 5 mg/kg oral BID, TNBS + Vehicle 3.9 ± 0.3)	Ulcer grade ([3]; Experiment 1, 5 mg/kg oral BID, TNBS + Vehicle 4.0 ± 0.5)
6.82	5.19	9.30	8.77	–	C#CC(C)(C)c1cc(NC(=O)Nc2ccc(Oc3ccnc(Nc4cc(OC)cc(OCCOCCOCCOC)c4)n3)c3ccccc23)n(-c2ccc(C)cc2)n1 [Example 13, 1-(4-((2-((3-Methoxy-5-(2-(2-(2-methoxyethoxy)ethoxy)ethoxy)phenyl)amino)pyrimidin-4-yl)oxy)naphthalen-1-yl)-3-(3-(2-methylbut-3-yn-2-yl)-1-(p-tolyl)-1H-pyrazol-5-yl)urea]	8.77	8.89	7.23	3.0 ± 0.4	2.8 ± 0.3	2.9 ± 0.5	2.3 ± 0.3	significant activity	marked reduction	marked improvements	–	–	–	–
6.42	< 5.00	9.05	8.49	9.40	C#CC(C)(C)c1cc(NC(=O)Nc2ccc(Oc3ccnc(Nc4cc(C)c5[nH]ncc5c4)n3)c3ccccc23)n(-c2ccc(C)cc2)n1 [Example 2, 1-(4-((2-((7-Methyl-1H-indazol-5-yl)amino)pyrimidin-4-yl)oxy)naphthalen-1-yl)-3-(3-(2-methylbut-3-yn-2-yl)-1-(p-tolyl)-1H-pyrazol-5-yl)urea]	8.70	8.44	7.74	–	–	–	–	significant activity	marked reduction	marked improvements	2.7 ± 0.4	3.4 ± 0.6	1.7 ± 0.4	2.4 ± 0.6

— patent US9790209B2, “Kinase inhibitors” (Respivert Limited, priority 2012, dated 2017)
